Usually half-life stands for how long it takes for the measured level to halve.

SMILES strings stand for the structures. Residues, ends and D or L forms follow the SMILES beside them. Bounds are passed on as bounds.

A short description of this series: Half life in human plasma. Format: ADME, cell-free.
On to `CC(C)(C)OC(=O)Oc1ccc2c3c1O[C@H]1C(=O)CC[C@@]4(O)[C@@H](C2)N(CC2CC2)CC[C@]314`, for which the half-life is over 1440 min.

`Cc1cn([C@H]2C=C[C@@H](COC(=O)CN(C)C)O2)c(=O)[nH]c1=O` returned a half-life of 30 min.

As for `CCOC(=O)CN(C)C(=O)OCN(c1ccc([N+](=O)[O-])cc1Oc1ccccc1)S(C)(=O)=O`, the half-life was determined as 2950 min.

`CCCCCCCC(=O)OC[C@H]1O[C@@H](n2cnc3c(NC4CCCC4)ncnc32)[C@H](O)[C@@H]1O` displayed a half-life of 28 min.

Compound `CCCCCCCCCCCCOC(=O)[C@H](Cc1ccccc1)NC(=O)CN.Cl` came in with a half-life of 112 min. Against the preceding compound, the half-life is about 4-fold higher.

Take `COc1ccccc1OC(=O)c1ccccc1Nc1cccc(C)c1C` [MEFENAMIC ACID GUAIACOL ESTER]: the half-life is 914 min.

On to `Cc1nccn1CCOC(=O)[C@H](C)c1ccc(CC(C)C)cc1`, for which the half-life was 5.2 min.

The compound `COc1ccc2c(c1)c(CC(=O)NCCOCCOCCO)c(C)n2C(=O)c1ccc(Cl)cc1` registered a half-life of 4440 min.

Consider `CC(C)OC(=O)[C@@H](N)Cc1ccc(O)c(O)c1`, for which the half-life is 238 min.

On to `CCOC(=O)[C@@H](N)Cc1ccc(O)c(O)c1` [ETILEVODOPA], for which the half-life is 100 min.

With `Cc1cc(C)nc(N(COC(=O)c2ccccc2)S(=O)(=O)c2ccc(N)cc2)n1`, the half-life turned out to be 41.4 min.

In the case of `Nc1nc2c(ncn2COCCOC(=O)c2cccc(CN3CCCCC3)c2)c(=O)[nH]1`, the half-life was determined as 8.5 min.

Compound `CC(C)[C@H](N)C(=O)OCCOCn1cnc2c(=O)[nH]c(N)nc21` (stereo in doubt; 160) [VALACYCLOVIR] returned a half-life of 312 min.

For `CC(C)C(=O)Oc1ccc2c3c1O[C@H]1C(=O)CC[C@@]4(O)[C@@H](C2)N(CC2CC2)CC[C@]314`, the half-life came out at 24.6 min.

Turning to `CC(C)(C)C(=O)OCN(c1ccc([N+](=O)[O-])cc1Oc1ccccc1)S(C)(=O)=O`, the half-life amounted to 102 min.

Consider `NCCCC[C@H](N)C(=O)OC[C@H]1O[C@@H](n2cc(F)c(=O)[nH]c2=O)C[C@@H]1OC(=O)[C@@H](N)CCCCN`, for which the half-life was 29.5 min.

In the case of `CCOC(=O)CN(COC(=O)[C@@H](C)c1ccc2cc(OC)ccc2c1)C(=O)c1ccccc1`, the half-life amounted to 78 min.

In turn, `C[C@H](NC(=O)[C@H](N)CC(=O)OCc1ccc([N+](=O)[O-])cc1)C(=O)O` came in with a half-life of 7.2 min.

In turn, `Cc1ncc([N+](=O)[O-])n1CCOC(=O)CN1CCC(c2ccccc2)CC1` registered a half-life of 138 min.

In turn, `CCCC(CCC)C(=O)OCN(CC(=O)OCC)C(=O)c1ccccc1` returned a half-life of 1320 min.

In turn, `CCC[C@@H]1O[C@@H]2C[C@H]3[C@@H]4C[C@H](F)C5=CC(=O)C=C[C@]5(C)[C@@]4(F)[C@@H](O)C[C@]3(C)[C@]2(S[C@H]2CCOC2=O)O1` gave a half-life of 4 min.

Take `CCCCN(CCCC)Cc1cccc(C(=O)OCCOCn2cnc3c(=O)[nH]c(N)nc32)c1`: the half-life came out at 2.3 min.

The compound `CCCSc1ccc2nc(NC(=O)OC)n(C(=O)OCC)c2c1` registered a half-life of 7.19 min. Compared with the last compound, the half-life is about 3.1-fold higher.

As to `CCC(=O)Oc1c(-c2ccc(O)c(O)c2)oc2cc(O)cc(O)c2c1=O`, the half-life turned out to be 31.2 min.

Turning to `C[C@H](C(=O)OCC(=O)N(C)C)c1ccc(-c2ccccc2)c(F)c1`, the half-life came out at 11 min. Against the preceding compound, the half-life is about 2.8-fold lower.

For the compound `COC(=O)[C@H](Cc1ccccc1)NC(=O)CN.Cl` (H-Gly-Phe-OMe), the half-life was 10 min.

With `COC(=O)[C@H](Cc1ccc(OC(C)=O)c(OC(C)=O)c1)NC(=O)CCCC[C@@H]1CCSS1`, the half-life stood at 52.8 min.

For `Nc1ccc(S(=O)(=O)N(COC(=O)c2ccccc2)c2cncs2)cc1`, the half-life was determined as 0.12 min.

For the compound `COc1ccc2cc([C@H](C)C(=O)OCN(C)C(=O)c3ccccc3)ccc2c1`, the half-life amounted to 72 min.

In turn, `CCOC(=O)CN(COC(=O)Cc1ccccc1Nc1c(Cl)cccc1Cl)C(=O)c1ccccc1` registered a half-life of 162 min.

Compound `O=C(CCCCCCCCC(=O)Oc1ccc2c3c1O[C@H]1[C@@H](O)CC[C@@]4(O)[C@@H](C2)N(CC2CCC2)CC[C@]314)Oc1ccc2c3c1O[C@H]1[C@@H](O)CC[C@@]4(O)[C@@H](C2)N(CC2CCC2)CC[C@]314` [DINALBUPHINE SEBACATE] showed a half-life of 5.4 min.

`CC(C)OC(=O)Oc1ccc2c3c1O[C@H]1C(=O)CC[C@@]4(O)[C@@H](C2)N(CC2CC2)CC[C@]314` returned a half-life of 39 min.

Compound `CC(C)Cc1ccc([C@H](C)C(=O)OCCn2ccnc2)cc1` came in with a half-life of 960 min.

The compound `CCCCOC(=O)[C@H](Cc1ccccc1)NC(=O)CN.Cl` returned a half-life of 11.5 min. This half-life lies about 83-fold lower than the previous one.

`O=C(OC[C@H]1O[C@@H](n2cnc3c(NC4CCCC4)ncnc32)[C@H](O)[C@@H]1O)C1CCCCC1` showed a half-life of 45 min.

Consider `CN(CC(=O)O)C(=O)[C@@H](N)CCC(=O)OCc1ccccc1`, for which the half-life is 73.2 min.

As to `Cc1noc(N(COC(=O)c2ccccc2)S(=O)(=O)c2ccc(N)cc2)c1C`, the half-life stood at 5.78 min.

The compound `CS(=O)(=O)N(COC(=O)c1ccccc1)c1ccc([N+](=O)[O-])cc1Oc1ccccc1` registered a half-life of 1.93 min.

Take `CN(CC(=O)O)C(=O)[C@@H](N)CCC(=O)OCCOCn1cnc2c(=O)[nH]c(N)nc21`: the half-life was determined as 72.7 min.

`C[C@H](NC(=O)[C@H](N)CCC(=O)OCCc1ccccc1)C(=O)O`: the half-life stood at 97 min. This half-life and that of the compound before are within 1.5-fold of each other.

In turn, `CC(=O)N(c1onc(C)c1C)S(=O)(=O)c1ccc(N)cc1` [SULFISOXAZOLE ACETYL] gave a half-life of 0.3 min.

Regarding `CN(CC(=O)O)C(=O)[C@@H](N)CC(=O)OCc1ccccc1`, the half-life worked out at 180 min.

In turn, `CCOC(=O)[C@H](C)c1ccc(CC(C)C)cc1` displayed a half-life of 5580 min.

`Cc1cn([C@H]2C=C[C@@H](COC(=O)CNNC(=O)c3ccncc3)O2)c(=O)[nH]c1=O` returned a half-life of 60 min.

`NCC(=O)N[C@@H](Cc1ccccc1)C(=O)O` (H-Gly-Phe-OH) returned a half-life of 71.5 min.

As to `CCCSc1ccc2c(c1)nc(NC(=O)OC)n2C(=O)OCC`, the half-life amounted to 8.32 min.

Regarding `C[C@H](NC(=O)[C@H](N)CCC(=O)OCc1ccccc1)C(=O)O`, the half-life is 158 min.

Consider `O=C(OC[C@H]1O[C@@H](n2cc(F)c(=O)[nH]c2=O)C[C@@H]1OC(=O)[C@@H]1CCCN1)[C@@H]1CCCN1`, for which the half-life came to 6 min.

Compound `CCOC(=O)CNC(=O)OCN(c1ccc([N+](=O)[O-])cc1Oc1ccccc1)S(C)(=O)=O` yielded a half-life of 954 min.

For the compound `Cc1cn(CCOC(=O)CC[C@H](N)C(=O)N(C)CC(=O)O)c(=O)[nH]c1=O`, the half-life was found to be 61.3 min.

`CCOC(=O)CN(COC(=O)c1ccccc1)C(=O)c1ccccc1` gave a half-life of 12 min.

Turning to `CCCCC(=O)OC[C@H]1O[C@@H](n2cnc3c(NC4CCCC4)ncnc32)[C@H](O)[C@@H]1O`, the half-life was found to be 18 min.

Compound `CCOC(=O)CNC(=O)OCOC(=O)C(C)(C)Oc1ccc(Cl)cc1` registered a half-life of 1.63 min.

On to `Cc1ncc([N+](=O)[O-])n1CCOC(=O)CCCCC(=O)OCCn1c([N+](=O)[O-])cnc1C`, for which the half-life came to 16.8 min.

`CC(C)Cc1ccc([C@H](C)C(=O)OCC(=O)N(C)C)cc1` registered a half-life of 7 min.

Consider `CCCC(=O)Oc1c(-c2ccc(O)c(O)c2)oc2cc(O)cc(O)c2c1=O`, for which the half-life worked out at 63 min.

As to `CCCN(CCC)S(=O)(=O)c1ccc(C(=O)OCN(CC(=O)OCC)C(=O)c2ccccc2)cc1`, the half-life was determined as 46 min.

For `CCOC(=O)c1ccc(/N=N/N(C)C(=O)OCOC(=O)c2ccccc2)cc1`, the half-life is 47 min.

`CCCCOC(=O)[C@@H](N)Cc1ccc(O)c(O)c1` displayed a half-life of 96 min. Against the preceding compound, the half-life is about 2-fold higher.

With `CCOC(=O)[C@@H](C)c1ccc(CC(C)C)cc1`, the half-life stood at 15900 min.

As for `Cc1cn([C@H]2C=C[C@@H](COC(=O)CNC(=O)c3ccncn3)O2)c(=O)[nH]c1=O`, the half-life stood at 60 min.

For `CC(C)C[C@H](NC(=O)[C@H](Cc1ccccc1)NC(=O)CNC(=O)CN1C(=O)[C@H](Cc2ccc(O)cc2)NC12CCCCC2)C(=O)O`, the half-life worked out at 730 min.

`N[C@@H](Cc1ccc(O)c(O)c1)C(=O)OCCCCO` came in with a half-life of 105 min.

The compound `N[C@@H](CC(=O)O)C(=O)OC[C@H]1O[C@@H](n2cc(F)c(=O)[nH]c2=O)C[C@@H]1O` registered a half-life of 38.6 min.

Regarding `C[C@H](NC(=O)[C@H](N)CC(=O)OCc1ccc(F)cc1)C(=O)O`, the half-life was 260 min.

`COc1ccc2cc([C@H](C)C(=O)OCCOCCO)ccc2c1`: the half-life amounted to 38.6 min.

Take `CCOC(=O)CNC(=O)OCOC(=O)c1ccccc1Nc1cccc(C(F)(F)F)c1`: the half-life was 21.8 min.

Take `CCCCC(=O)OCN1C(=O)NC(c2ccccc2)(c2ccccc2)C1=O`: the half-life turned out to be 1.9 min.

In turn, `CCCCCCCCCCCC(=O)Oc1c(-c2ccc(O)c(O)c2)oc2cc(O)cc(O)c2c1=O` came in with a half-life of 73.2 min.

In turn, `Cc1cc(C)nc(N(COC(=O)C(C)(C)C)S(=O)(=O)c2ccc(N)cc2)n1` registered a half-life of 244 min.

As for `O=C(OCN(C(=O)c1ccccc1)c1ccccc1)c1ccccc1`, the half-life came out at 40 min.

In turn, `CCOC(=O)CN(COC(=O)[C@@H]1N2C(=O)[C@@H](NC(=O)Cc3ccccc3)[C@H]2SC1(C)C)C(=O)c1ccccc1` yielded a half-life of 5.1 min.

Consider `C[C@H](NC(=O)[C@H](N)CC(=O)OCc1ccccc1)C(=O)O`, for which the half-life came out at 211 min.

`CCOC(=O)CSCC(=O)[C@@]12OC(C)(C)O[C@@H]1C[C@H]1[C@@H]3C[C@H](F)C4=CC(=O)C=C[C@]4(C)[C@@]3(F)[C@@H](O)C[C@@]12C`: the half-life worked out at 24 min.

In the case of `CCCCCCCCOC(=O)[C@H](Cc1ccccc1)NC(=O)CN.Cl`, the half-life is 42.5 min.

As for `CCN(CC)C(=O)COC(=O)[C@@H](C)c1ccc(-c2ccccc2)c(F)c1`, the half-life was 2.6 min. Compared with the last compound, the half-life is about 16-fold lower.

Consider `Nc1ccc(S(=O)(=O)N(COC(=O)c2ccccc2)c2ncccn2)cc1`, for which the half-life worked out at 1.38 min.

On to `CCOC(=O)CN(C)C(=O)OCOC(=O)c1ccccc1`, for which the half-life was determined as 0.41 min.

As to `O=C(OCc1ccccc1)[C@H]1O[C@@H](Oc2cc3oc(-c4ccc(O)cc4)cc(=O)c3c(O)c2O)[C@H](O)[C@@H](O)[C@@H]1O`, the half-life is 88 min.

In the case of `COC(=O)[C@@H](C)c1ccc2cc(OC)ccc2c1`, the half-life turned out to be 316 min.

Take `CCCCC(=O)OCOC(=O)Cc1c(C)n(C(=O)c2ccc(Cl)cc2)c2ccc(OC)cc12`: the half-life was 124 min.

Regarding `CCN(CC)C(=O)COC(=O)[C@H](C)c1ccc(-c2ccccc2)c(F)c1`, the half-life worked out at 1.5 min.

With `CCOC(=O)CNC(=O)OCOC(=O)c1cccnc1`, the half-life was 0.43 min.

Source of the values: ChEMBL document CHEMBL1821652, “QSAR models for predicting enzymatic hydrolysis of new chemical entities in 'soft-drug' design” (Bioorg Med Chem, 2009).
